The source of these data is US20050113455A1, “Method and composition for amelioration of pain” (priority 2003, published 2005).

For data set [1], the system named is visceral nociception (stretching) in mice. Briefly: Murine visceral pain model: stretching in mouse i.p. acetic acid test. The format is in vivo. As to conditions: for Potency at inhibiting visceral nociception relative to morphine: mouse i.p. acetic acid test, dose-response relationships; for MED (minimum dose at which the number of stretches during the observation period is significantly different from saline controls): mouse, s.c. administration, 0.6% acetic acid i.p., 30 min observation. As to the method: Dose-response relationships for the polyamines listed in Table 1 were performed in the mouse i.p. acetic acid test.
Assessment of Candidate Agents in a Murine Visceral Pain Model: There is an extensive literature on visceral pain in the acetic acid mouse model (Bidlack J M, Cohen D J, McLaughlin J P, Lou R, Ye Y, Wentland M P. 8-carboxamidocyclazocine: A long-acting, novel benzomorphan. J Pharmacol Exp Ther. 2002;302:374-380; Reichert J A, Daughters R S, Rivard R, Simone D A. Peripheral and preemptive opioid antinociception in a mouse visceral pain model. Pain. 2001;89:221-227; Farzin D, Asghari L, Nowrouzi M. Rodent antinociception following acute treatment with different histamine receptor agonists and antagonists. Pharmacol Biochem Behav. 2002;72:751-760; Hinschberger A, Butt 5, Lelong V, Boulouard M, Dumuis A, Dauphin F, Bureau R, Pfeiffer B, Renard P, Rault S. New benzo[h][1,6]naphthyridine and azepino[3,2-c]quinoline derivatives as selective antagonists of 5-ht4 receptors: Binding profile and pharmacological characterization. J Med Chem. 2003;46:138-147).
The mice receive either an s.c. or i.p. injection (0.3 mL) of either saline or a test drug at varying doses. Fifteen to thirty minutes following the treatment, the animals receive an i.p. injection of 0.6% acetic acid in saline (sterile, 0.3 mL). The mice are then placed into holding cages and observed for 30 mm. The number of stretches the animals make following the acetic acid injections are counted. A stretch is identified by the animal extending its hind legs well behind its body. This posture is rarely seen in a non-injected animal.

The conditions of data set [2]: cited from earlier work.

As for `CN1CC[C@]23c4c5ccc(O)c4O[C@H]2[C@@H](O)C=C[C@H]3[C@H]1C5` [morphine, reference compound], in data set [1] (observed during mouse i.p. acetic acid test), the “Overt cognitive / behavioural effects in mice” value is “produced stereotypical opiate induced hyperactivity and Straub tail”. `CCNCCCN[C@H]1CC[C@H](NCCCNCC)CC1` [CHX(3,4,3)-trans, N,N′-bis[3-(ethylamino)propyl]-trans-1,4-cyclohexanediamine]: in data set [1], the “Potency at inhibiting visceral nociception relative to morphine” value was “more than three orders of magnitude more potent than morphine” and the “MED (minimum dose at which the number of stretches during the observation period is significantly different from saline controls)” value stood at 0.0037 mg/kg s.c. For `CC(C)NCCCNCCCCNCCCNC(C)C` [DIPSPM, N^1N^12-diisopropylspermime], in data set [1], the “Effectiveness in the murine visceral pain model (in words)” value (from here on “Effectiveness”) is “less so”. Still for that read-out and setting: in the case of `C(CCNC1CCNCC1)CNC1CCNCC1` [PIP(3,4,3), N,N′-bis(4-piperidinyl)-1,4-butanediamine] it was “less so”.

Take `CCNCCCNCCCNCCCNCC` [DENSPM, N^1,N^11-diethylnorspermine]: in data set [1], the “Effectiveness” value is recorded as “highly effective” and the “MED (minimum dose at which the number of stretches during the observation period is significantly different from saline controls)” value turned out to be 0.37 mg/kg s.c. On to `CCCCNCCCNCCCCNCCCNCCCC` [DBSPM, N^1N^11-dibutylspermine], for which the “MED (minimum dose at which the number of stretches during the observation period is significantly different from saline controls)” value in data set [1] is 0.12 mg/kg s.c. Regarding `CCNCCCCNCCCCNCCCCNCC` [DEHSPM, N^1,N^14-diethylhomospermine], in data set [1], the “Effectiveness” value is on record as “highly effective” and the “Potency at inhibiting visceral nociception relative to morphine” value was “equipotent to morphine”. Besides, the “Cognitive effects in human clinical trials” value in data set [2] is listed as “lack of cognitive effects”.

Consider `CCNCCCNCCCCNCCCNCC` [DESPM, N^1,N^12-diethylspermine], for which, in data set [1], the “Effectiveness” value is recorded as “less so”. In the case of “dihydroxydiethylnorspermine [(HO)2DENSPM]”, the “MED (minimum dose at which the number of stretches during the observation period is significantly different from saline controls)” value in data set [1] stood at 0.0037 mg/kg s.c.
